ChEMBL document CHEMBL3044664, “Synthesis of coumarin-based 1,3,4-oxadiazol-2ylthio-N-phenyl/benzothiazolyl acetamides as antimicrobial and antituberculosis agents” (2013)
≈ marks a conversion by molar mass, not a printed value.

Assays:
Assay type in all cases: functional
Candida albicans = experiment: Antifungal activity against Candida albicans MTCC 183 assessed as growth inhibition by agar streak dilution method
Aspergillus clavatus = experiment: Antifungal activity against Aspergillus clavatus MTCC 1323 assessed as growth inhibition by agar streak dilution method
Aspergillus fumigatus = experiment: Antifungal activity against Aspergillus fumigatus MTCC 343 assessed as growth inhibition by agar streak dilution method
Aspergillus niger = experiment: Antifungal activity against Aspergillus niger MTCC 282 assessed as growth inhibition by agar streak dilution method
Shigella flexneri = experiment: Antibacterial activity against Shigella flexneri MTCC 1457 assessed as growth inhibition by agar streak dilution method
Proteus vulgaris = experiment: Antibacterial activity against Proteus vulgaris MTCC 1771 assessed as growth inhibition by agar streak dilution method
Salmonella typhi = experiment: Antibacterial activity against Salmonella enterica subsp. enterica serovar Typhi MTCC 733 assessed as growth inhibition by agar streak dilution method
Klebsiella pneumoniae = experiment: Antibacterial activity against Klebsiella pneumoniae MTCC 109 assessed as growth inhibition by agar streak dilution method
Pseudomonas aeruginosa = experiment: Antibacterial activity against Pseudomonas aeruginosa MTCC 741 assessed as growth inhibition by agar streak dilution method
Escherichia coli = experiment: Antibacterial activity against Escherichia coli MTCC 739 assessed as growth inhibition by agar streak dilution method
Bacillus cereus = experiment: Antibacterial activity against Bacillus cereus MTCC 430 assessed as growth inhibition by agar streak dilution method
Staphylococcus aureus = experiment: Antibacterial activity against Staphylococcus aureus MTCC 96 assessed as growth inhibition by agar streak dilution method
[1] = tested on: Mycobacterium tuberculosis; experiment: Antitubercular activity against Mycobacterium tuberculosis H37Rv assessed as growth inhibition at MIC by Lowenstein-Jensen method
[2] = tested on: Mycobacterium tuberculosis; experiment: Antitubercular activity against Mycobacterium tuberculosis H37Rv assessed as growth inhibition by Lowenstein-Jensen method
[3] = tested on: Mycobacterium tuberculosis; experiment: Antitubercular activity against Mycobacterium tuberculosis H37Rv assessed as growth inhibition by BACTEC MGIT method

Row | Compound | MIC (Candida albicans) | MIC (Aspergillus clavatus) | MIC (Aspergillus fumigatus) | MIC (Aspergillus niger) | MIC (Shigella flexneri) | MIC (Proteus vulgaris) | MIC (Salmonella typhi) | MIC (Klebsiella pneumoniae) | MIC (Pseudomonas aeruginosa) | MIC (Escherichia coli) | MIC (Bacillus cereus) | MIC (Staphylococcus aureus) | growth inhibition (GI) [1] | MIC [2] | MIC [3]
1 | O=C(CSc1nnc(-c2cc3ccccc3oc2=O)o1)Nc1nc2ccc(I)cc2s1 | 100 µg/mL (≈ 178 µM) | 100 µg/mL (≈ 178 µM) | 100 µg/mL (≈ 178 µM) | 100 µg/mL (≈ 178 µM) | 100 µg/mL (≈ 178 µM) | > 100 µg/mL | 100 µg/mL (≈ 178 µM) | 100 µg/mL (≈ 178 µM) | > 100 µg/mL | 50 µg/mL (≈ 88.9 µM) | 100 µg/mL (≈ 178 µM) | 100 µg/mL (≈ 178 µM) | 97% | 100 µg/mL (≈ 178 µM) | > 6.25 µg/mL
2 | O=C(CSc1nnc(-c2cc3ccccc3oc2=O)o1)Nc1nc2ccc([N+](=O)[O-])cc2s1 | 50 µg/mL (≈ 104 µM) | 100 µg/mL (≈ 208 µM) | 100 µg/mL (≈ 208 µM) | 50 µg/mL (≈ 104 µM) | 100 µg/mL (≈ 208 µM) | 12.5 µg/mL (≈ 26 µM) | 100 µg/mL (≈ 208 µM) | 50 µg/mL (≈ 104 µM) | 100 µg/mL (≈ 208 µM) | 100 µg/mL (≈ 208 µM) | 100 µg/mL (≈ 208 µM) | 50 µg/mL (≈ 104 µM) | 96% | 250 µg/mL (≈ 519 µM) | > 6.25 µg/mL
3 | N#Cc1ccc2nc(NC(=O)CSc3nnc(-c4cc5ccccc5oc4=O)o3)sc2c1 | 50 µg/mL (≈ 108 µM) | 100 µg/mL (≈ 217 µM) | > 100 µg/mL | 100 µg/mL (≈ 217 µM) | > 100 µg/mL | 100 µg/mL (≈ 217 µM) | 100 µg/mL (≈ 217 µM) | 25 µg/mL (≈ 54.2 µM) | > 100 µg/mL | 50 µg/mL (≈ 108 µM) | 100 µg/mL (≈ 217 µM) | 25 µg/mL (≈ 54.2 µM) | 98% | 100 µg/mL (≈ 217 µM) | > 6.25 µg/mL
4 | Cc1ccc2nc(NC(=O)CSc3nnc(-c4cc5ccccc5oc4=O)o3)sc2c1 | 100 µg/mL (≈ 222 µM) | 100 µg/mL (≈ 222 µM) | > 100 µg/mL | > 100 µg/mL | > 100 µg/mL | 100 µg/mL (≈ 222 µM) | 100 µg/mL (≈ 222 µM) | 100 µg/mL (≈ 222 µM) | 100 µg/mL (≈ 222 µM) | > 100 µg/mL | 100 µg/mL (≈ 222 µM) | 100 µg/mL (≈ 222 µM) | 95% | 200 µg/mL (≈ 444 µM) | > 6.25 µg/mL
5 | COc1ccc2nc(NC(=O)CSc3nnc(-c4cc5ccccc5oc4=O)o3)sc2c1 | 50 µg/mL (≈ 107 µM) | 25 µg/mL (≈ 53.6 µM) | 100 µg/mL (≈ 214 µM) | 50 µg/mL (≈ 107 µM) | 50 µg/mL (≈ 107 µM) | 25 µg/mL (≈ 53.6 µM) | 25 µg/mL (≈ 53.6 µM) | 100 µg/mL (≈ 214 µM) | 50 µg/mL (≈ 107 µM) | 100 µg/mL (≈ 214 µM) | 50 µg/mL (≈ 107 µM) | 25 µg/mL (≈ 53.6 µM) | 98% | 25 µg/mL (≈ 53.6 µM) | > 6.25 µg/mL
6 | CCOc1ccc2nc(NC(=O)CSc3nnc(-c4cc5ccccc5oc4=O)o3)sc2c1 | 100 µg/mL (≈ 208 µM) | 50 µg/mL (≈ 104 µM) | 100 µg/mL (≈ 208 µM) | 100 µg/mL (≈ 208 µM) | 100 µg/mL (≈ 208 µM) | 100 µg/mL (≈ 208 µM) | 12.5 µg/mL (≈ 26 µM) | 100 µg/mL (≈ 208 µM) | 6.25 µg/mL (≈ 13 µM) | 50 µg/mL (≈ 104 µM) | 25 µg/mL (≈ 52 µM) | 12.5 µg/mL (≈ 26 µM) | 97% | 50 µg/mL (≈ 104 µM) | > 6.25 µg/mL
7 | CC(=O)Nc1ccc2nc(NC(=O)CSc3nnc(-c4cc5ccccc5oc4=O)o3)sc2c1 | > 100 µg/mL | 12.5 µg/mL (≈ 25.3 µM) | > 100 µg/mL | 100 µg/mL (≈ 203 µM) | 100 µg/mL (≈ 203 µM) | > 100 µg/mL | 100 µg/mL (≈ 203 µM) | 100 µg/mL (≈ 203 µM) | 12.5 µg/mL (≈ 25.3 µM) | 100 µg/mL (≈ 203 µM) | 100 µg/mL (≈ 203 µM) | 50 µg/mL (≈ 101 µM) | 96% | 100 µg/mL (≈ 203 µM) | > 6.25 µg/mL
8 | O=C(O)c1cn(C2CC2)c2cc(N3CCNCC3)c(F)cc2c1=O [CIPROFLOXACIN] |  |  |  |  | 1.56 µg/mL (≈ 4.71 µM) | 0.39 µg/mL (≈ 1.18 µM) | 0.39 µg/mL (≈ 1.18 µM) | 0.78 µg/mL (≈ 2.35 µM) | 0.78 µg/mL (≈ 2.35 µM) |  | 0.39 µg/mL (≈ 1.18 µM) | 1.56 µg/mL (≈ 4.71 µM) |  |  | 
9 | CC(=O)N1CCN(c2ccc(OCC3COC(Cn4ccnc4)(c4ccc(Cl)cc4Cl)O3)cc2)CC1 (stereo unspecified) [KETOCONAZOLE] | 1.56 µg/mL (≈ 2.94 µM) | 0.78 µg/mL (≈ 1.47 µM) | 0.78 µg/mL (≈ 1.47 µM) | 1.56 µg/mL (≈ 2.94 µM) |  |  |  |  |  |  |  |  |  |  | 
